From ChEMBL document CHEMBL1155560, “Two complex proline esters from the sea hare Stylocheilus longicauda” (J Nat Prod, 2000)
In brackets after ≈: the same amount, converted by molar mass.

Assays:
Format in all cases: functional, cell-based
A549 = assay: Cytotoxicity against human A549 cells
P388 = assay: Cytotoxicity against mouse P388 cells
[1] = Cytotoxicity against human HTB38 cells; details: HTB-38

| SMILES | IC50 (A549) [µg/mL] | IC50 (P388) [µg/mL] | IC50 [1] [µg/mL] |
| --- | --- | --- | --- |
| C=C[C@](C)(CCC=C(C)C)c1ccc2c3c(c[nH]c13)C[C@@H](COC(C)=O)NC(=O)[C@H](C(C)C)N2C [LYNGBYATOXIN A ACETATE] | 0.05 | 0.05 | 0.05 |
| C=C(C/C=C/C=C/Cl)CC(OC(=O)[C@@H]1CCC(=O)N1C)C(C)(C)C (stereo partly specified) | 2.5 (≈ 7.06 µM) | 2.5 (≈ 7.06 µM) | 2.5 (≈ 7.06 µM) |
